Data as given in ChEMBL document CHEMBL1150051, “Antiviral (RNA) activity of selected Amaryllidaceae isoquinoline constituents and synthesis of related substances” (J Nat Prod, 1992).
In brackets after ≈: the same amount, converted by molar mass. Activity calls are given as the source filed them. The rule behind the calls is not given here.

Tests used:
[1] = test system: dengue virus type 4; assay: Antiviral activity against Dengue virus type 4 infected in african green monkey Vero cells after 6 days by plaque reduction assay; format: functional, organism-based; conditions: Dengue virus, Vero, 144 h; read-out: IC50
[2] = Therapeutic index, ratio of TC50 for african green monkey Vero cells to IC50 for Japanese encephalitis virus Nakayama; format: cell-based; conditions: read-out: TI
[3] = test system: Yellow fever virus; assay: Antiviral activity against Yellow fever virus Ashibi infected in african green monkey Vero cells assessed as inhibition of virus-induced cytopathic effect by MTT assay; format: functional, organism-based; conditions: Yellow fever virus, Ashibi, Vero; read-out: IC50
[4] = test system: Mus musculus; assay: Toxicity in C57BL/6 mouse assessed as body weight loss at 40 mg/kg/day, sc once daily for 7 days; format: organism-based; design: route subcutaneous; conditions: in vivo, 168 h
[5] = test system: Japanese encephalitis virus; assay: Antiviral activity against Japanese encephalitis virus Beijing infected in low viral dose challenge C57BL/6 mouse model assessed as average day of death at 10 mg/kg/day, sc once daily for 7 days administered 1 day before infection measured after 28 days post infection; format: functional; conditions: route subcutaneous
[6] = test system: Mus musculus; assay: Toxicity in C57BL/6 mouse assessed as average day of death at 2 mg/kg/day, sc once daily for 7 days; format: organism-based; design: route subcutaneous; conditions: in vivo, 168 h
[7] = test system: Japanese encephalitis virus; assay: Antiviral activity against Japanese encephalitis virus Beijing infected in low viral dose challenge C57BL/6 mouse model assessed as average day of death at 40 mg/kg/day, sc once daily for 7 days administered 1 day before infection measured after 28 days post infection; format: functional; conditions: route subcutaneous
[8] = test system: Japanese encephalitis virus; assay: Antiviral activity against Japanese encephalitis virus Beijing infected in low viral dose challenge C57BL/6 mouse model assessed as survival rate at 20 mg/kg/day, sc once daily for 7 days administered 1 day before infection measured after 28 days post infection relative to control; format: functional; conditions: route subcutaneous
[9] = Therapeutic index, ratio of TC50 for african green monkey Vero cells to IC50 for Punta toro virus Adames; format: cell-based; conditions: read-out: TI
[10] = test system: Venezuelan equine encephalitis virus; assay: Antiviral activity against Venezuelan equine encephalitis virus Trinidad donkey infected in african green monkey Vero cells assessed as inhibition of virus-induced cytopathic effect by MTT assay; format: functional, organism-based
[11] = Therapeutic index, ratio of TC50 for african green monkey Vero cells to IC50 for Rift valley fever virus; format: cell-based; conditions: read-out: TI
[12] = test system: Sandfly fever Sicilian virus; assay: Antiviral activity against Sandfly fever sicilian virus infected in african green monkey Vero cells assessed as inhibition of virus-induced cytopathic effect by MTT assay; format: functional, organism-based; conditions: sandfly fever Sicilian virus, Vero; read-out: IC50
[13] = test system: Japanese encephalitis virus; assay: Antiviral activity against Japanese encephalitis virus Nakayama infected in african green monkey Vero cells assessed as inhibition of virus-induced cytopathic effect by MTT assay; format: functional, organism-based; conditions: Japanese encephalitis virus, Nakayama, Vero; read-out: IC50
[14] = test system: Mus musculus; assay: Toxicity in C57BL/6 mouse assessed as mortality at 20 mg/kg/day, sc once daily for 7 days; format: organism-based; design: route subcutaneous; conditions: in vivo, 168 h
[15] = test system: Vaccinia virus; assay: Antiviral activity against Vaccinia virus Lederle vaccine infected in african green monkey Vero cells assessed as inhibition of virus-induced cytopathic effect by MTT assay; format: functional, organism-based; conditions: Orthopoxvirus vaccinia
[16] = test system: Japanese encephalitis virus; assay: Antiviral activity against Japanese encephalitis virus Beijing infected in low viral dose challenge C57BL/6 mouse model assessed as survival rate at 40 mg/kg/day, sc once daily for 7 days administered 1 day before infection measured after 28 days post infection relative to control; format: functional; conditions: route subcutaneous
[17] = test system: Japanese encephalitis virus; assay: Antiviral activity against Japanese encephalitis virus Beijing infected in low viral dose challenge C57BL/6 mouse model assessed as survival rate at 10 mg/kg/day, sc once daily for 7 days administered 1 day before infection measured after 28 days post infection relative to control; format: functional, organism-based
[18] = test system: Rift Valley fever virus; assay: Antiviral activity against Rift Valley fever virus infected in african green monkey Vero cells after 6 days by plaque reduction assay; format: functional, organism-based; conditions: Rift Valley fever virus, Vero, 144 h; read-out: IC50
[19] = Therapeutic index, ratio of TC50 for african green monkey Vero cells to IC50 for Dengue type 4 virus; format: cell-based; conditions: read-out: TI
[20] = test system: Human immunodeficiency virus 1; assay: Antiviral activity against HIV1 by cells based assay; format: functional, organism-based
[21] = test system: Mus musculus; assay: Toxicity in C57BL/6 mouse assessed as mortality at 40 mg/kg/day, sc once daily for 7 days; format: organism-based; design: route subcutaneous; conditions: in vivo, 168 h
[22] = test system: Mus musculus; assay: Toxicity in C57BL/6 mouse assessed as mortality at 10 mg/kg/day, sc once daily for 7 days; format: organism-based; design: route subcutaneous; conditions: in vivo, 168 h
[23] = Therapeutic index, ratio of TC50 for african green monkey Vero cells to IC50 for Yellow fever virus Ashibi; format: cell-based; conditions: read-out: TI
[24] = test system: Japanese encephalitis virus; assay: Antiviral activity against Japanese encephalitis virus Beijing infected in low viral dose challenge C57BL/6 mouse model assessed as average day of death at 20 mg/kg/day, sc once daily for 7 days administered 1 day before infection measured after 28 days post infection; format: functional; conditions: route subcutaneous
[25] = Therapeutic index, ratio of TC50 for african green monkey Vero cells to IC50 for Sandfly fever sicilian virus; format: cell-based; conditions: read-out: TI
[26] = test system: Punta Toro virus; assay: Antiviral activity against Punta Toro virus Adames infected in african green monkey Vero cells assessed as inhibition of virus-induced cytopathic effect by MTT assay; format: functional, organism-based; conditions: Punta Toro virus, Adames, Vero; read-out: IC50

`O=C1N[C@H]2[C@H](O)[C@H](O)[C@@H](O)[C@H](O)[C@@H]2c2cc3c(cc21)OCO3` gave an IC50 [1] of 0.67 µg/mL (≈ 2.17 µM), a selectivity ratio [2] of 5.9 and an IC50 [3] of 0.4 µg/mL (≈ 1.29 µM). The Activity [4] was “Toxic”, the Activity [5] was 13.6 days and the Activity [6] was 28 days. It also gave an Activity [7] of 9.5 days, an Activity [8] of 60% and a selectivity ratio [9] of 4.3. The Activity [10] was “inactive”, the selectivity ratio [11] was 4.3 and the IC50 [12] was 1.7 µg/mL (≈ 5.5 µM). The IC50 [13] was 0.48 µg/mL (≈ 1.55 µM), the Activity [14] was “Non-toxic” and the Activity [15] was “inactive”. The Activity [16] was 80%, the Activity [17] was “inactive” and the IC50 [18] was 5.1 µg/mL (≈ 16.5 µM). For the same compound, the selectivity ratio [19] was 3.7, the Activity [20] was “inactive” and the Activity [21] was “Non-toxic”. The Activity [22] was “Non-toxic”, the selectivity ratio [23] was 6.6 and the Activity [24] was 15 days. For the same compound, the selectivity ratio [25] was 2.7 and the IC50 [26] was 0.66 µg/mL (≈ 2.13 µM).
